The values below come from patent US11654136B2, “Phosphoinositide 3-kinase inhibitor with a zinc binding moiety” (Curis, Inc., priority 2011, dated 2023).

The subject of one data set is MM1R subcutaneous tumor. Nature of the data set: MM1R xenograft model. Type of data set: in vivo, SCID/Beige mice. As to conditions: oral gavage five times per week. As to the method:
Female SCID/Beige mice at age 4 weeks were housed in ventilated micro-isolator cages (INNOCAGE®IVC, Innovive Inc., San Diego, Calif.) in a controlled climate, fed with sterile high-fat diet (Problab-RMH 2000) ad libitum and provided with sterilized water. All housing and supplies for SCID/Beige mice were sterilized by autoclaving before use. Mice were inspected daily including weekends/holidays by trained animal facility personnel and investigators. All animal procedures were performed under sterile conditions within a biosafety cabinet (for injections) or laminar flow hood (for animal husbandry and non-invasive procedures).
MM1R human MM cells were originally obtained from peripheral blood of a multiple myeloma patient (Goldman-Leikin R E, et al., J Lab Clin Invest. 1980, 13:335-345). Cryopreserved cells were thawed in a 37° C. water bath and cultured in RPMI medium plus 10% Fetal Bovine Serum (FBS) in a tissue culture incubator at 5% CO2. Cells were sent to outside vendors for contaminants and rodent pathogen screening intended to rule out contamination by mycoplasma (by PCR) and/or virus (by MAP test, Mouse Antibody Production). When the cells in culture were enough for implantation, they washed with serum free Hank's balanced salt solution (HBSS). Finally the cells were diluted in HBSS for implantation. […] The implanted mice were monitored for general health and tumor development daily.
Tumors were detectable about two weeks following implantation. Tumor size was measured with a caliper. […]
During each animal study, tumors were measured with calipers, tumor size determined using the above mentioned formula, and tumor size changes in percentage calculated. Mouse body weights were measured with a scale twice per week. […] T/C values were calculated using the following formula: % T/C=100×ΔT/ΔC if ΔT>0. […]
The treatment period was 18 days. Tumor sizes and body weights were measured again on the last day of the study.

A short description of data set [1]: Daudi xenograft tumor model. It counts as in vivo. As to conditions: Scid, mouse, in vivo; oral; Daudi model; read-out: maximum tolerated dose (MTD). The protocol: (§1) SU-DHL4 (diffuse large B-cell lymphoma cell line), H2122 (human NSCLC cell line), Daudi (non-Hodgkin's lymphoma cell line), and OPM2 (multiple myeloma tumor cell line) cells were implanted into either nude or Scid (severe […] immune-deficient) mice. […]. […] The control groups were treated with vehicle using the same dosing schedule as the corresponding active group.
(§2) In another study, the Daudi tumor group was dosed at 50 mg/Kg twice a day for five days per week. […] The SU-DHL4 tumor group was dosed at 100 mg/Kg orally or 50 mg/Kg intravenously.
(§3) Tumors were measured during the study period with an electronic caliper, and body weights were measured twice a week. The following formula was used to calculate the tumor volume: […] Percentage of tumor volume change was used to describe compound activity over the treatment period.

The test system of data set [2] is Daudi (non-Hodgkin's lymphoma cell line) xenograft tumors. Nature of the data set: Daudi xenograft tumor model. Type of data set: in vivo. The protocol:
as §1, §2, §3

The nature of data set [3]: Pharmacokinetic study in dogs. It counts as in vivo. As to conditions: beagle dogs. The text has this:
FIG. 4 is a graph of plasma concentration versus time for both oral and iv dosing.

In data set [4] the test system is PI3K-AKT-mTOR pathway, RAF-MEK-ERK pathways, RTK protein levels, p53 and p21. Nature of the data set: Pharmacodynamics, Western blots of Daudi tumor tissue extracts. As to conditions: single dose 25, 50 and 100 mg/kg; Daudi tumors. It counts as in vivo, Scid mice. As to the method:
Protein was extracted from tumor tissues using a Tissuelyser (Qiagen, Valencia, Calif.) according to the manufacturer's instructions. 30 ug of protein was routinely used for WB analysis as described above. Cell lysates were resolved on NuPAGE Novex 4-12% Bis-Tris gels (Invitrogen) and transferred to nitrocellulose membranes (Bio-Rad Laboratories, Hercules, Calif.). The blots were probed with various primary antibodies overnight at 4° C. GAPDH (glyceraldehyde 3-phosphate dehydrogenase, 1:30,000, Abcam, Cambridge, Mass.) was used as an internal control for each assay. Membranes were then incubated with infrared labeled secondary antibodies (1:10000) conjugated-IR Dye-800 (Rockland Immunochemicals, Inc. Gilbertsville, Pa.) or conjugated-Alexa 680 (Invitrogen). Membranes were imaged with the Odyssey Infrared Imaging System (Li-Cor Biotechnology, Lincoln, Nebr.).
On the technique in general: In western blotting, separated proteins are transferred to a membrane and probed.

The subject of the next data set is glioblastoma xenografts. As to conditions: oral dosage; Folkes et al. 2008; cited from earlier work.

`COc1ccc(-c2nc(N3CCOCC3)c3sc(CN(C)c4ncc(C(=O)NO)cn4)cc3n2)cn1` [Compound 1, N-hydroxy-2-(((2-(6-methoxypyridin-3-yl)-4-morpholinothieno[3,2-d]pyrimidin-6-yl)methyl)(methyl)amino)pyrimidine-5-carboxamide] showed a T/C value in the data set on MM1R subcutaneous tumor (day-17, p<0.0001) of 21.15%. For the same molecule, in the data set on MM1R subcutaneous tumor (single agent, 18 days), the “Body weight and side effects” value was “No body weight loss or other side effects were observed”. The Tumor growth result is listed as “inhibited tumor growth” with MM1R subcutaneous tumor (single agent, 18 days) and “efficacious” in data set [2] (oral 50 mg/Kg twice a day, five days per week). Moreover, the MTD in data set [1] stood at 100 mg/kg. In addition, in data set [2] (oral 100 mg/Kg, each treatment at its MTD), the “Antitumor activity compared with GDC-0941, vorinostat and their combination” value is reported as “more efficacious than vorinostat, GDC-0941, or a combination of both”. Moreover, the “Tumor growth versus dose” value in data set [2] (oral 25, 50 or 100 mg/Kg five day per week) was “inhibited Daudi tumor growth in a dose-dependent manner”. In addition, the “Area under the Curve” value is 2977.47 ng/mL * hr in data set [3] (IV 5 mg/kg, plasma) and 450.4 ng/mL * hr in data set [3] (PO Capsule 5 mg/kg, plasma). Further, the Half-life amounted to 1.85 h in data set [3] (IV 5 mg/kg, plasma) and 4.88 h in data set [3] (PO Capsule 5 mg/kg, plasma). Also, the bioavailability in data set [3] (dog, plasma, PO Capsule 5 mg/kg) came to 15.1%. Moreover, the Cmax in data set [3] (dog, IV 5 mg/kg, plasma) came to 6160 ng/mL; in data set [3] (dog, PO Capsule 5 mg/kg, plasma) it was 312 ng/mL. Besides, the “Plasma levels after oral dosing” value in data set [3] (oral 5 mg/kg in enteric capsules) is “Significant plasma levels”. Also, the “Pharmacodynamic markers in tumor tissue (Western blots)” value in data set [4] was “inhibits the PI3K-AKT-mTOR pathway, suppresses the RAF-MEK-ERK pathways, downregulates RTK protein levels and up-regulates tumor suppressor p53 and p21 levels”.
Take `CS(=O)(=O)N1CCN(Cc2cc3nc(-c4cccc5[nH]ncc45)nc(N4CCOCC4)c3s2)CC1` [GDC-0941, reference compound]: the Tumor suppression result in the data set on glioblastoma xenografts is reported as “tumor suppression”.

One may read the MTD as the largest dose that counted as tolerated. As usually defined, the bioavailability is the share of a dose that reaches the circulation, judged against a reference dose that is usually intravenous. A higher bioavailability goes with good availability. In general, Cmax refers to the highest concentration seen after dosing.
